For test [1], the system named is adult housefly. As to the kind of experiment: Efficacy against adult housefly, calves subcutaneous pellets (Example 20). The note with it: calf 651, subcutaneous pellets about 5 mg./kg.; test day per line. It counts as in vivo, Musca domestica. The method, then: (§1) For the adult housefly test, 10 ml. of serum were employed to saturate a wick which was placed in a petri dish. Twenty-five chilled houseflies were placed in the dish which was then incubated for 24 hours at 27° C. and 50% relative humidity. After the end of the twenty-four hours, the efficacy of the candidate compound was determined as the percent mortality of housefly, adjusted as for blowfly by normal mortality in a control and reported according to the same scale as above.
The compound of Example 2, 2-hydroxy-2-(1,1,2,2-tetrafluoroethyl)-4-nitro-6-(trifluoromethyl)benzimidazoline sodium salt, was formulated neat into tablets, each containing about 85 mg. of compound.
These pellets were implanted in the right shoulder area of two calves, weighing 400 and 373 kilograms respectively, to supply a dose of about 5 mg./kg. (animals #651 and 1511, respectively). Another calf (animal #656) was maintained as a control and two additional calves weighing 336 and 350 kilograms (animals #654 and 655, respectively) received pellets of 2-(1,1,2,2-tetrafluoroethyl)-4-nitro-6-(trifluoromethyl)benzimidazole, to supply a dose of about 5 mg./kg. of compound.
As described in preceding examples, blood samples were withdrawn and analyzed for the concentration of the compound in the blood and percent efficacy against adult housefly and blowfly larvae.

Test [2] has as its system adult housefly. As to the kind of experiment: Efficacy against adult housefly, calves intravenous injection (Example 17). It counts as in vivo, Musca domestica. Conditions: daily i.v. 0.5 to 1.5 mg/kg escalating, day per line. The method, then:
as §1
A group of three calves each weighing about 220 kilograms was employed. The compound of Example 2, 2-hydroxy-2-(1,1,2,2-tetrafluoroethyl)-4-nitro-6-(trifluoromethyl)benzimidazoline, sodium salt, was dissolved in distilled water and the resulting solution was administered by intravenous injection. Rates of administration increased throughout the evaluation period, from 0.5 to 1.5 mg./kg. of body weight, with each dose supplied for a period of 5 days (except the 1.5 mg./kg. dose, which was administered for 6 days).
On each day of the evaluation, immediately preceding that day's injection, a sample of blood was withdrawn from each calf. The concentration of the compound in the blood was determined; and the efficacy of the compound against adult housefly and blowfly larvae was assayed by the method described in Example 15. […]

A further test deals with Mustard. Nature of the test: Pre-emergence herbicide test, mustard. It counts as in vivo. The method, then: (§2) In this evaluation, each compound to be tested was dissolved in a 1:1 mixture of acetone and ethanol containing a small amount of Toximul R and Toximul S (each a sulfonate/nonionic blend produced by Stepan Chemical Company, Northfield, Illinois). The solution was then diluted with deionized water to a composition of the following concentrations, by weight: Plant species used as indicators of herbicidal activity were planted in galvanized pans (flats) 31.5 cm. long, 21.5 cm. wide, and 8.0 cm. deep. The bottoms of the flats had holes to facilitate drainage. The soil used was a 1:1 ratio by volume of masonry sand and shredded top soil. Flats that were to receive preemergence treatments were planted one day prior to, or on the same day treatments were applied. Flats that were to receive postemergence treatments were planted 9 days prior to treatment and placed in a growth chamber until the day of treatment. In the growth chamber, flats received 12 to 18 hours of light per day and were subject to temperatures of 75° to 85° F. The formulated test compound was applied uniformly to the indicator species with a modified DeVilbiss atomizer using air pressure of 3 to 5 psi. Each flat received 12.5 ml. of spray solution which was equal to 200 gallons/acre total spray volume. Plants were maintained in a greenhouse after treatment. Herbicidal effects of chemicals were evaluated by two injury rating systems 18 days after preemergence applications and 14 days after postemergence applications. The degree of plant injury was based on a 1 to 5 scale and a single numerical rating was assigned to each test species as follows: […]

The subject of another test is Barnyard Grass. As to the kind of experiment: Pre-emergence herbicide test, barnyard grass. It counts as in vivo. The procedure:
as §2

The test system of a further test is Wheat. Nature of the test: Pre-emergence herbicide test, wheat. It counts as in vivo. The method, then:
as §2

A further test deals with Lambsquarter. As to the kind of experiment: Pre-emergence herbicide test, lambsquarter. It counts as in vivo. The procedure: as §2
The subject of test [3] is adult housefly. Nature of the test: Efficacy against adult housefly, calves jugular infusion (Example 18). It counts as in vivo, Musca domestica. The note with it: Evaluation I, calf 988, jugular infusion 0.66 mg/kg/day to day 10; day/hours per line. The method, then: as §1
On each day of the evaluation, immediately preceding that day's injection, a sample of blood was withdrawn from each calf. The concentration of the compound in the blood was determined; and the efficacy of the compound against adult housefly and blowfly larvae was assayed by the method described in Example 15. Efficacy was reported, however, as the percent of blowfly larvae or adult housefly which was killed. […]
Three evaluations were conducted sequentially with the compound of Example 2, 2-hydroxy-2-(1,1,2,2-tetrafluoroethyl)-4-nitro-6-(trifluoromethyl)benzimidazoline, sodium salt, administered daily to calves by jugular infusion of a solution of the compound in distilled water. As described in the preceding example, blood samples were withdrawn and analyzed for concentration of the compound and efficacy against adult housefly and blowfly larvae.

A further test relates to Wild Oat. As to the kind of experiment: Pre-emergence herbicide test, wild oat. The format is in vivo. The procedure:
as §2

A further test has as its system Soybean. Nature of the test: Pre-emergence herbicide test, soybean. The format is in vivo. The procedure:
as §2

The test system of another test is Tomato. As to the kind of experiment: Pre-emergence herbicide test, tomato. It counts as in vivo. The method, then: as §2
Another test concerns Rice. As to the kind of experiment: Pre-emergence herbicide test, rice. It counts as in vivo. The method, then: as §2
In another test the test system is blowfly larvae. Nature of the test: Blowfly larvae fed on serum of dosed guinea pigs. Conditions: guinea pig, serum at 24 hours. It counts as in vivo, Phormia regina. The method, then: Representative compounds of the present invention were evaluated against larvae of blowfly (Phormia regina) and against adult housefly (Musca domestica). In these evaluations, the candidate compound was administered to each of two male guinea pigs weighing from about 400 grams to about 1000 grams. Administration was via the intraperitoneal route, the compound having been formulated in sesame oil. At twenty-four hours following administration of the compound, blood was withdrawn from the guinea pigs. The serum portion was isolated and blowfly larvae and adult houseflies were fed on the serum. For the blowfly assay, 10 ml. of serum were placed in a test tube with a wick onto which 50 blowfly larvae were placed. The covered test tube was incubated at 27° C. for 24 hours, at which time efficacy of the candidate compound was determined as the percent mortality of the blowfly larvae, adjusted by normal mortality in a control, and reported according to the following rating scale:
Percent mortality was determined separately for each guinea pig.

Experimental findings from US4265901A, “2-Oxybenzimidazoline compounds” (priority 1979, dated 1981) are described below.

Where a name gives a salt, the structure may show the parent alone.

On to `O=[N+]([O-])c1cc(C(F)(F)F)cc2c1NC(O)(C(F)(F)C(F)F)N2` (stereo not shown) [Example 2, 2-Hydroxy-2-(1,1,2,2-Tetrafluoroethyl)-4-Nitro-6-(Trifluoromethyl)Benzimidazoline, Sodium Salt, and Hydrate], for which the “% Efficacy, Adult Housefly” value in the test with adult housefly [1], in the test with adult housefly [2] (calf 987), with adult housefly [2] (calf 991) and with adult housefly [3] was 100% in each case. Moreover, the plant injury rating in the test with Mustard (1/2 lb/A) is 2S; with Mustard (1/4 lb/A), 1 (no injury); in the test with Mustard (1 lb/A), 4B; with Mustard (2 lb/A), 5D; with Mustard (4 lb/A) it was 5D; in the test with Barnyard Grass (1/2 lb/A), 1 (no injury). Besides, the plant injury rating is recorded as 1 (no injury) with Barnyard Grass (1/4 lb/A); 1 (no injury) in the test with Barnyard Grass (2 lb/A); 2BS in the test with Barnyard Grass (4 lb/A); 1 (no injury) in the test on Wheat (1/2 lb/A); 1 (no injury) in the test on Wheat (1/4 lb/A); 1 (no injury) with Wheat (1 lb/A). For the same compound, the plant injury rating in the test with Wheat (2 lb/A) is on record as 1 (no injury); in the test on Wheat (4 lb/A), 3BS; with Lambsquarter (1/2 lb/A) it was 2S; with Lambsquarter (1/4 lb/A) it was 1 (no injury); in the test with Lambsquarter (2 lb/A) it was 5D; in the test with Lambsquarter (4 lb/A), 5D. Also, the plant injury rating in the test on Wild Oat (1/2 lb/A) is 1 (no injury); in the test with Wild Oat (1/4 lb/A), 1 (no injury); in the test on Wild Oat (1 lb/A) it was 1 (no injury); in the test with Wild Oat (2 lb/A), 2 (slight injury); in the test with Wild Oat (4 lb/A) it was 5 (death); in the test with Soybean (1/2 lb/A), 1 (no injury). Further, the plant injury rating in the test with Soybean (1/4 lb/A) is recorded as 1 (no injury); in the test on Soybean (1 lb/A), 1 (no injury); in the test on Soybean (2 lb/A), 1 (no injury); in the test with Soybean (4 lb/A) it was 2B; in the test on Tomato (1/2 lb/A), 2S; with Tomato (1/4 lb/A), 1 (no injury). In addition, the plant injury rating is listed as 1 (no injury) with Tomato (2 lb/A); 4BS in the test with Tomato (4 lb/A); 1 (no injury) with Rice (1/2 lb/A); 1 (no injury) with Rice (1/4 lb/A); 1 (no injury) with Rice (1 lb/A); 2S in the test with Rice (2 lb/A). In the test on Rice (4 lb/A), this compound came in with a plant injury rating of 2SB.

`O=[N+]([O-])c1cc(Cl)cc2c1NC(O)(C(F)F)N2` (stereo not shown) [Example 5, 2-Hydroxy-2-(Difluoromethyl)-4-Nitro-6-Chlorobenzimidazoline, Calcium Salt]: the “Efficacy Rating, Blowfly Larvae” value with blowfly larvae (1 mg./kg. i.p.) and in the test with blowfly larvae (5 mg./kg. i.p.) was 0 (none dead) throughout.

`O=[N+]([O-])c1cc(C(F)(F)F)cc2c1NC(O)(C(F)(F)C(F)F)N2O` (stereo not shown) [Example 12, 1,2-Dihydroxy-2-(1,1,2,2-Tetrafluoroethyl)-4-Nitro-6-(Trifluoromethyl)Benzimidazoline]: the plant injury rating in the test with Mustard (1/2 lb/A) is reported as 1 (no injury); with Mustard (1 lb/A), 1 (no injury); with Mustard (2 lb/A) it was 2S; in the test on Barnyard Grass (1/2 lb/A), 1 (no injury); in the test with Barnyard Grass (1 lb/A), 1 (no injury); with Barnyard Grass (2 lb/A), 1 (no injury). In addition, the plant injury rating with Wheat (1/2 lb/A) was 1 (no injury); with Wheat (1 lb/A), 1 (no injury); in the test with Wheat (2 lb/A), 1 (no injury); in the test on Lambsquarter (1/2 lb/A), 1 (no injury); in the test with Lambsquarter (1 lb/A), 3SB; in the test with Lambsquarter (2 lb/A), 3S. Besides, the plant injury rating with Wild Oat (1/2 lb/A) was 1 (no injury); in the test with Wild Oat (1 lb/A) it was 1 (no injury); with Wild Oat (2 lb/A), 2B; with Soybean (1/2 lb/A), 1 (no injury); with Soybean (1 lb/A) it was 1 (no injury); with Soybean (2 lb/A), 1 (no injury). Moreover, the plant injury rating in the test with Tomato (1/2 lb/A), in the test with Tomato (1 lb/A), in the test on Tomato (2 lb/A), in the test on Rice (1/2 lb/A), with Rice (1 lb/A) and with Rice (2 lb/A) was 1 (no injury) each time.
